Reference: article PMC7759012 (Biochemistry, 2020)

Key:
Assay type in all cases: binding
[1] = molecular target: BirA (E. coli biotin protein ligase; BirA wt) (Escherichia coli, UniProt P06709, R118A); experiment: ITC, direct titration, single-site model
[2] = molecular target: BirA (E. coli biotin protein ligase; BirA wt) (Escherichia coli, UniProt P06709, E313A); experiment: ITC, direct titration, single-site model
[3] = molecular target: BirA (E. coli biotin protein ligase; BirA wt) (Escherichia coli, UniProt P06709, K183A); experiment: ITC, direct titration, single-site model
[4] = molecular target: BirA (E. coli biotin protein ligase; BirA wt) (Escherichia coli, UniProt P06709); experiment: ITC, TAPS, proton linkage; details: pH 6.0; 10 mM Bistris, citrate or MES with 200 mM KCl, 2.5 mM MgCl2

Row | Compound | Kd [1] [nM] | Kd [2] [nM] | Kd [3] [nM] | ITC, TAPS, proton linkage (enthalpy only) [4]
1 | Nc1ncnc2c1ncn2[C@@H]1O[C@H](COP(=O)(O)OC(=O)CCCC[C@@H]2SC[C@@H]3NC(=O)N[C@@H]32)[C@@H](O)[C@H]1O [bio-5'-AMP] | 1.3 | 10 | 22 | 
2 | Nc1ncnc2c1ncn2[C@@H]1O[C@H](COP(=O)(O)OCCCCC[C@@H]2SC[C@@H]3NC(=O)N[C@@H]32)[C@@H](O)[C@H]1O [btnOH-AMP] |  |  |  | btnOH-AMP binding to BirA^wt is linked to proton release
